Experimental data reported in publication PMC7367873, “Dissecting the sequence determinants for dephosphorylation by the catalytic subunits of phosphatases PP1 and PP2A” (Nature Communications, 2020).

Tested on: GAB2-pS210
Assay: In vitro dephosphorylation of GAB2-pS210 (Western blot)
Type: biochemical, human
Conditions: GAB2-pS210 relative to GAB2, Calyculin A 20 nM 12 min in HeLa Kyoto cells, recombinant PP1c 1 µM, 1 h at 30 °C in lysate
Protocol: pEGFP(C1)-14-3-3β or pCMV-GAB2-3FLAG was transfected into HeLa Kyoto cells as described in the respective section for 24 h. Cells were incubated with or w/o 20 nM Calyculin A (# 9902 S, Cell Signaling Technology) in complete growth media for 12 min. Cells were washed twice on ice with cold PBS and after addition of 500 µL lysis buffer (100 mM NaCl, 10 mM Tris, 0.1% IGEPAL, 1 mM EDTA, 1 mM EGTA, 20 nM Calyculin A, 1x cOmplete Mini protease inhibitor cocktail (Sigma), 2 mM DTT, 2 mM MnCl2) cells were scraped from plates, lysed by 10 pushes through an injection needle and the insoluble fraction was pelleted by centrifugation (10 min, 10^4 rcf, 4 °C). […] Beads were then washed three times with lysis buffer and samples were eluted in 1x SDS sample buffer by heating to 95 °C for 10 min and further analyzed by SDS PAGE for 14-3-3/GAB2 association and phosphorylation status of GAB2-pS210.
For SDS-PAGE, samples were loaded on NuPAGE™ 4-12% Bis-Tris protein gels (Invitrogen) and gel electrophoresis was performed at 180 V constant in 1x MOPS buffer. […] All blots were quantified using raw images and ImageLab software (v6.0.1, BioRad): Files were imported and analyzed without further modifications. […] The quantification was exported from the analysis table and measurements of background adjusted band volumes where used for further normalization steps and graphical depiction. […]

Substance: PP1c: recombinant catalytic subunit of PP1
- p-level of GAB2 pS210: decrease in the p-level
